US12448383B2, “Compounds and methods for treatment of viral infections” (priority 2022, dated 2025)
Read-outs that look alike come from different tables or passages of the source.

What was measured:
[1] = CC50 MT4 cytotoxicity (Cell-Titer Glo); format: cell-based; settings: human
Outline: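 CC50 values are the concentrations cutting viability by 50%, fitted by non-linear regression against untreated (100%) and 2 μM puromycin (0%) controls. Cell-Titer Glo luminescence measured after 4-5 days at 37° C exposure of uninfected MT-4 and HEp-2 cells to 3-fold dilutions spanning 15 nM to 100,000 nM.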

[2] = Stability in pH2 buffered solution; format: physicochemical; settings: pH2 phosphate buffer, 40° C., 24 h; Table N2
Protocol: (§1) Example N: Stability in p112 and p117 Buffered Solutions
(§2) The aqueous stability of compounds over a time of 24 hours at 40° C. was assessed. Stability was determined in 50 mM phosphate buffered solutions at both pH2 and pH7, with 150 mM NaCl (to achieve isotonicity). 3-5 mg of solid compounds were added to 7 mL scintillation vials. Acetonitrile was added to each vial to produce a 1 mg/mL stock solution. Stock solutions were diluted to 50 μg/mL in either pH2 or pH7 phosphate buffer, to a volume of 1 mL. For each compound and pH condition, 50 μg/mL samples were prepped in duplicate. One sample was placed on the UPLC tray at 40° C. for analysis, and the second sample was placed in a 40° C. oven for storage. Sample preps for each compound were offset by 40 minutes to account for run time on UPLC.
(§3) Concentration timepoints were measured at 0, 3, 6, 9, and 12 hrs. After 24 hrs, samples in the 40° C. oven were removed and analyzed by UPLC.
(§4) In FIG. 2, % AN stands for % area normalized. That is, % AN is the area of the compound peak relative to the sum of areas of all the peaks in the UPLC chromatogram. For example, if there were two peaks, compound peak with an area of 9 and another peak with an area of 1, then the % AN of the compound peak would be 90%.

[3] = Stability in pH7 buffered solution; format: physicochemical; settings: pH7 phosphate buffer, 40° C., Table N2
Protocol: as §1, §2, §3, §4

[4] = tested on: Respiratory syncytial virus recombinant with luciferase (RSV-Luc5) in Normal Human Bronchial Epithelial (NHBE) cells; assay: microbe, parasite or virus in culture; format: cell-based
[5] = tested on: Caco-2 cells (clone C2BBe1); assay: CACO-2 permeability; format: in vitro ADME; set-up: unit not given here; settings: for DM Caco2 A to B: apical to basolateral, donor pH 6.5, receiver pH 7.4; for DM Caco2 B to A: basolateral to apical
Outline: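 A-to-B and B-to-A flux measured by LC-MS/MS from receiver samples taken at 1 and 2 h, with donor sampled at 0 and 2 h and recovery checked. Buffers: pH 6.5 HBSS with 200 μM BNPP on the donor side, pH 7.4 with BSA on the receiver side. Monolayers were 21-day cultures, TEER-verified, in duplicate wells.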

[6] = tested on: Respiratory syncytial virus recombinant with luciferase (RSV-Luc5) in HEp-2 cells; assay: microbe, parasite or virus in culture; format: cell-based; settings: human respiratory syncytial virus, HEp-2, 72 h, read-out: RSV Hep2 EC50
[7] = tested on: SARS Coronavirus 2 recombinant with NanoLuc (SARS-CoV2-NLuc) in A549-hACE2 cells; assay: organism not typed; format: cell-based
Plasma stability = format: in vitro ADME; set-up: unit not given here; settings: 37° C., 2 μM substrate
Outline: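 LC-MS (Q-Exactive, 5 ppm tolerance, 0.1% formic acid water/acetonitrile gradient) quantified compound in quenched aliquots. Aliquots were taken at 0.05, 0.5, 1, 2, 3 and 4 hr and quenched with internal-standard solution, and supernatants were diluted with water after centrifugation.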

[8] = GI S9 stability - no PMSF; format: in vitro ADME; set-up: GIS9-HUMAN-NoPMSF T1/2: unit: min; settings: human intestinal S9, PMSF-free; for half-life at 2 µM: pH 7.4, read-out: GIS9-HUMAN-NoPMSF T1/2
Outline: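 Stability was assessed by Q-Exactive LC-MS peak area ratios against internal standard, tracking loss of parent and appearance of nucleoside metabolite Reference Compound A. Incubations used 2 μM compound in 1 mg/mL intestinal S9 without PMSF (PBS, pH 7.4), with six samples taken over 120 min.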

[9] = Thermodynamic solubility in pH7 buffered solution; settings: 50 mM phosphate buffer pH7, 150 mM NaCl, ambient temperature, 24 hours
Protocol: Solubility was determined at ambient temperature in a 50 mM phosphate buffered pH7 solution with 150 mM NaCl (to achieve isotonicity). Solids were added to the buffered solution in 1.5-mL Eppendorf tubes, vortexed for 1 minute, then agitated for 24 hours in an Eppendorf ThermoMixer C. […] Supernatants were diluted to a volume of 1 mL with 30:70 v/v acetonitrile:water. All diluted supernatants were analyzed by UPLC using a Waters Acquity UPLC with a PDA UV detector.

SMILES	CC50 [1] [µM]	pH 2 Stability 24 h % AN [2] [% AN]	pH 7 Stability 24 h % AN [3] [% AN]	EC50 ([4]; 72 h, read-out: RSV NHBE EC50) [µM]	DM Caco2 A to B [5]	DM Caco2 B to A [5]	EC50 [6] [µM]	EC50 ([7]; 48 h; read-out: SARS-CoV2 EC50) [µM]	CC50 ([1]; uninfected MT-4 cells, 4-5 days, read-out: MT4 CC50) [µM]	STA Human Plasma 37 (Plasma stability)	half-life at 2 µM [8] [min]	EC50 ([7]; 48 h, read-out: SARS-CoV2 EC50) [µM]	Sol pH 7 [9]	GIS9-HUMAN-NoPMSF T1/2 [8]	logD (physchem)	EC50 ([4]; read-out: EC50 RSVFluc-NHBE 384 V2) [µM]	EC50 ([7]; A549; read-out: EC50 SARS CoV2 NanoLuc A549 384) [µM]
CCCC(=O)Nc1ncnn2c([C@]3(C#N)O[C@H](COC(=O)OCC(C)C)[C@@H](O)[C@H]3O)ccc12 [Compound 21, [(2R,3S,4R,5R)-5-[4-(butanoylamino)pyrrolo[2,1-f][1,2,4]triazin-7-yl]-5-cyano-3,4-dihydroxy-tetrahydrofuran-2-yl]methyl isobutyl carbonate]	> 50	0	92	2.25	1.36	8.33	2.38	12.9									
CCC(C)(C)OC(=O)OC[C@H]1O[C@@](C#N)(c2ccc3c(N)ncnn23)[C@H](OC(=O)OC(C)(C)CC)[C@@H]1OC(=O)OC(C)(C)CC [Compound 60, (2R,3R,4R,5R)-2-(4-aminopyrrolo[2,1-f][1,2,4]triazin-7-yl)-2-cyano-5-((((tert-pentyloxy)carbonyl)oxy)methyl)tetrahydrofuran-3,4-diyl di-tert-pentyl bis(carbonate)]		0	0	1.58	0.12	0.32			32.9	1584	44.9	2.69					
CC(C)OC(=O)Nc1ncnn2c([C@]3(C#N)O[C@H](COC(=O)OC(C)(C)C)[C@@H](O)[C@H]3O)ccc12 [Compound 63, isopropyl (7-((2R,3R,4S,5R)-5-(((tert-butoxycarbonyl)oxy)methyl)-2-cyano-3,4-dihydroxytetrahydrofuran-2-yl)pyrrolo[2,1-f][1,2,4]triazin-4-yl)carbamate]	> 50	3	0	41.6	1.18	12.46		> 50		1584	181		0.82				
CC(C)OC(=O)OC[C@H]1O[C@@](C#N)(c2ccc3c(N)ncnn23)[C@@H]2OC(=O)O[C@@H]21 [Compound 66, ((3aR,4R,6R,6aR)-6-(4-aminopyrrolo[2,1-f][1,2,4]triazin-7-yl)-6-cyano-2-oxotetrahydrofuro[3,4-d][1,3]dioxol-4-yl)methyl isopropyl carbonate]	> 50	2	0	0.499			0.847	3.21		24.2	0.491						
CC(C)(OC(=O)OC[C@H]1O[C@@](C#N)(c2ccc3c(N)ncnn23)[C@H](O)[C@@H]1O)C(F)(F)F [Compound 67, ((2R,3S,4R,5R)-5-(4-aminopyrrolo[2,1-f][1,2,4]triazin-7-yl)-5-cyano-3,4-dihydroxytetrahydrofuran-2-yl)methyl (1,1,1-trifluoro-2-methylpropan-2-yl) carbonate]	> 50	95	91	1.52	0.99	9.76		12.8		1177.1	10.5						
CC(C)(OC(=O)OC[C@H]1O[C@@](C#N)(c2ccc3c(N)ncnn23)[C@H](O)[C@@H]1O)C(F)F [Compound 76, ((2R,3S,4R,5R)-5-(4-aminopyrrolo[2,1-f][1,2,4]triazin-7-yl)-5-cyano-3,4-dihydroxytetrahydrofuran-2-yl)methyl (1,1-difluoro-2-methylpropan-2-yl) carbonate]	> 50	92	91	3.4	2.13	12.17		> 50		1584	38.9		0.37				
CCOC(=O)C(C)(C)OC(=O)OC[C@H]1O[C@@](C#N)(c2ccc3c(N)ncnn23)[C@H](O)[C@@H]1O [Compound 77, Ethyl 2-(((((2R,3S,4R,5R)-5-(4-aminopyrrolo[2,1-f][1,2,4]triazin-7-yl)-5-cyano-3,4-dihydroxytetrahydrofuran-2-yl)methoxy)carbonyl)oxy)-2-methyl propanoate]	> 50	98	95	≥ 50	0.27	5.58		> 50		383.67	792		4.64				
COCC(C)(C)OC(=O)OC[C@H]1O[C@@](C#N)(c2ccc3c(N)ncnn23)[C@H](O)[C@@H]1O [Compound 96, ((2R,3S,4R,5R)-5-(4-aminopyrrolo[2,1-f][1,2,4]triazin-7-yl)-5-cyano-3,4-dihydroxytetrahydrofuran-2-yl)methyl (1-methoxy-2-methylpropan-2-yl) carbonate]	> 50	96	95	> 50	0.09	4.05				1584			1.25	789			
CCOC(=O)[C@H](C)OC(=O)OC[C@H]1O[C@@](C#N)(c2ccc3c(N)ncnn23)[C@H](O)[C@@H]1O [Compound 97, ethyl (S)-2-(((((2R,3S,4R,5R)-5-(4-aminopyrrolo[2,1-f][1,2,4]triazin-7-yl)-5-cyano-3,4-dihydroxytetrahydrofuran-2-yl)methoxy)carbonyl)oxy)propanoate]		98	85	6.16	0.04	2.15				6.669	3.65		6.02				
CC(C)OC(=O)[C@H]([C@@H](C)OC(=O)OC[C@H]1O[C@@](C#N)(c2ccc3c(N)ncnn23)[C@H](O)[C@@H]1O)N(C)C [Compound 145, isopropyl (2S,3R)-3-[[(2R,3S,4R,5R)-5-(4-aminopyrrolo[2,1-f][1,2,4]triazin-7-yl)-5-cyano-3,4-dihydroxy-tetrahydrofuran-2-yl]methoxycarbonyloxy]-2-(dimethylamino)butanoate]	> 50	93	0		0.2	8.475				299.49	32.8				1.85	3.15	3.48
